Experimental data reported in ChEMBL document CHEMBL1275545, “Carbapenem-resistant Acinetobacter baumannii isolates expressing the blaOXA-23 gene associated with ISAba4 in Belgium” (2008).
Converted amounts (≈) assume the structure as drawn.

system: Acinetobacter baumannii; test: Antibacterial activity against Acinetobacter baumannii GIL1 isolate harboring intrinsic blaOXA-51/69-like gene by Etest method; type: functional

Row | Compound | MIC [µg/mL]
1 | NCC[C@H](O)C(=O)N[C@@H]1C[C@H](N)[C@@H](O[C@H]2O[C@H](CN)[C@@H](O)[C@H](O)[C@H]2O)[C@H](O)[C@H]1O[C@H]1O[C@H](CO)[C@@H](O)[C@H](N)[C@H]1O [AMIKACIN] | > 256
2 | CC1(C)[C@H](C(=O)O)N2C(=O)C[C@H]2S1(=O)=O [SULBACTAM] | 48 (≈ 206 µM)
3 | COLISTIN | 0.5
4 | C[C@@H](O)[C@H]1C(=O)N2C(C(=O)O)=C(SCCNC=N)C[C@H]12 [IMIPENEM ANHYDROUS] | > 32
5 | CO[C@H]1/C=C/O[C@@]2(C)Oc3c(C)c(O)c4c(O)c(c(/C=N/N5CCN(C)CC5)c(O)c4c3C2=O)NC(=O)/C(C)=C\C=C\[C@H](C)[C@H](O)[C@@H](C)[C@@H](O)[C@@H](C)[C@H](OC(C)=O)[C@@H]1C [RIFAMPIN] | 3 (≈ 3.65 µM)
6 | O=C(O)c1cn(C2CC2)c2cc(N3CCNCC3)c(F)cc2c1=O [CIPROFLOXACIN] | > 32
7 | CN(C)c1cc(NC(=O)CNC(C)(C)C)c(O)c2c1C[C@H]1C[C@H]3[C@H](N(C)C)C(O)=C(C(N)=O)C(=O)[C@@]3(O)C(O)=C1C2=O [TIGECYCLINE] | 6 (≈ 10.2 µM)
8 | C[C@@H](O)[C@H]1C(=O)N2C(C(=O)O)=C(S[C@@H]3CN[C@H](C(=O)N(C)C)C3)[C@H](C)[C@H]12 [MEROPENEM] | > 32
